Experimental data from the supplement of paper PMC10307832.

Assays:
Experiment in all cases: relative viability (nuclei count vs DMSO), 5 days (fraction); higher = more cells survive
[1] = compound: C1=CC2=C(C=C(C(=C2N=C1)O)N=NC3=CC4=C(C=C3)C=C(C=C4)S(=O)(=O)O)S(=O)(=O)O + Cc1nc(NC(=O)N2CCC[C@H]2C(N)=O)sc1-c1ccnc(C(C)(C)C(F)(F)F)c1 [Alpelisib] (partner 2 µM)
Outline: (§1)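 After 5 days of treatment, lung cancer cells in 1536-well plates were fixed and stained in a single step (final 0.05% Triton X-100, 1% formaldehyde, 1 ug/ml Hoechst) and their nuclei counted on 4× images. Treatment had been applied by pin tool the day after seeding as one drug alone or as a fixed anchor-drug dose with five library-drug doses (not always all listed) in √10 steps. Relative viability is the nuclei count of treated wells divided by that of vehicle wells, and values are medians of duplicate plates.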

[2] = compound: O=C(NC1CCNCC1)c1n[nH]cc1NC(=O)c1c(Cl)cccc1Cl [AT-7519] + N=C(N)NC(=N)NCCc1ccccc1 [Phenformin] (partner 250 µM)
Outline: as §1

[3] = compound: O=C(NC1CCNCC1)c1n[nH]cc1NC(=O)c1c(Cl)cccc1Cl [AT-7519] + COc1cc2c(Oc3ccc(NC(=O)C4(C(=O)Nc5ccc(F)cc5)CC4)cc3F)ccnc2cc1OCCCN1CCOCC1 [Foretinib] (partner 0.25 µM)
Outline: as §1

[4] = compound: C1=CC2=C(C=C(C(=C2N=C1)O)N=NC3=CC4=C(C=C3)C=C(C=C4)S(=O)(=O)O)S(=O)(=O)O + Cc1nc(Nc2ncc(C(=O)Nc3c(C)cccc3Cl)s2)cc(N2CCN(CCO)CC2)n1 [Dasatinib] (partner 0.075 µM)
Outline: as §1

Row | Cell Line | relative viability ([1]; first compound 0.08 µM) | relative viability ([1]; first compound 0.253 µM) | relative viability ([1]; first compound 0.8 µM) | relative viability ([1]; first compound 2.53 µM) | relative viability ([1]; first compound 8 µM) | relative viability ([2]; first compound 0.01 µM) | relative viability ([2]; first compound 0.03162 µM) | relative viability ([2]; first compound 0.3162 µM) | relative viability ([2]; first compound 1 µM) | relative viability ([3]; first compound 0.01 µM) | relative viability ([3]; first compound 0.03162 µM) | relative viability ([3]; first compound 0.3162 µM) | relative viability ([3]; first compound 1 µM) | relative viability ([4]; first compound 0.08 µM) | relative viability ([4]; first compound 0.253 µM) | relative viability ([4]; first compound 0.8 µM) | relative viability ([4]; first compound 2.53 µM) | relative viability ([4]; first compound 8 µM)
1 | HCC-827 | 1.05 | 0.989 | 0.807 | 0.978 | 1.05 | 0.457 | 0.437 | 0.341 | 0.246 | 1.03 | 0.991 | 1.03 | 0.964 | 0.306 | 0.294 | 0.244 | 0.261 | 0.272
2 | HOP-62 | 1.27 | 1.14 | 1.19 | 0.817 | 0.704 | 0.706 | 0.655 | 0.512 | 0.679 | 1.11 | 1.16 | 1.04 | 0.977 | 0.69 | 0.657 | 0.676 | 0.588 | 0.653
3 | IA-LM | 0.85 | 0.561 | 0.751 | 0.965 | 0.832 | – | – | – | – | 1.25 | 1.53 | 1.08 | 0.918 | – | – | – | – | –
4 | LC-2-ad | 0.619 | 0.783 | 0.828 | 0.857 | 0.98 | 0.522 | 0.573 | 0.498 | 0.413 | 0.975 | 0.984 | 0.85 | 0.452 | 0.799 | 0.593 | 0.555 | 0.548 | 0.687
5 | LCLC-97TM1 | – | 0.296 | – | 0.248 | 0.296 | 0.476 | 0.456 | 0.42 | 0.289 | 0.859 | 0.946 | 0.817 | 0.437 | 0.705 | 0.842 | 0.691 | 0.779 | 0.865
6 | LCLC-103H | 1 | 0.948 | 0.945 | 0.899 | 1.14 | 0.32 | 0.296 | 0.313 | 0.33 | 0.773 | 0.704 | 0.879 | 0.677 | 0.537 | 0.461 | 0.505 | 0.458 | 0.48
7 | LK-2 | 1.12 | 1.1 | 1.12 | 1.08 | 0.935 | 0.278 | 0.482 | – | 0.307 | 1.04 | 1.16 | – | 0.95 | 0.357 | 0.33 | 0.204 | 0.33 | 0.239
8 | LOU-NH91 | 0.783 | 0.744 | 0.703 | 0.761 | 0.675 | 0.674 | 0.743 | 0.677 | 0.631 | 0.876 | 0.943 | 0.976 | 0.821 | 0.579 | 0.585 | 0.53 | 0.597 | 0.508
9 | LU99A | 0.608 | 0.488 | 0.422 | 0.582 | 0.514 | 0.826 | 0.769 | 0.802 | 0.724 | 0.873 | 0.771 | 0.801 | 0.556 | 0.496 | 0.496 | 0.474 | 0.555 | 0.514
